Test results: patent publication US20250090472A1, “LIPID NANOPARTICLE COMPOSITIONS AND USES THEREOF” (BEIJING JITAI PHARMACEUTICAL TECHNOLOGY CO., LTD., priority 2023, published 2025)

These compounds were tested on C57BL/6 mice (assay: In vivo bioluminescence assay of LNPs encapsulating luciferase mRNA (without permanently cationic lipid)). Conditions: intravenous single dose 0.5 mg/kg luciferase mRNA, 6 h after administration, group mean.
Description: The delivery effect and safety of nanoparticles encapsulated with luciferase mRNA (Trilink, L-7202) in mice were evaluated. The test mice were SPF-grade C57BL/6 mice, female, 6-8 weeks old, weighing 18-22 g, and were purchased from SPF (Beijing) Biotechnology Co., Ltd. All animals were acclimatized for more than 7 days prior to the experiment, and had free access to food and water during the experiment. The conditions include alternating light and dark for 12/12 h, the indoor temperature of 20-26° C. and the humidity of 40-70%. The mice were randomly grouped. The lipid nanoparticles encapsulated with luciferase mRNA prepared above were injected into mice by intravenous administration at a single dose of 0.5 mg/kg mRNA, and the mice were subjected to in vivo bioluminescence assay using a Small Animal In Vivo Imaging System (IVIS LUMINA III, purchased from PerkinElmer) at 6 h after administration. The assay was performed as follows: D-luciferin solution was prepared in saline at a concentration of 15 mg/mL, and each mouse was given the substrate by intraperitoneal injection. At ten minutes after administration of the substrate, the mice were anesthetized in an anesthesia chamber with isoflurane at a concentration of 2.5%. The anesthetized mice were placed in IVIS for luminescent imaging. Data acquisition and analysis were performed on the concentrated distribution area of luminescence.
The in vivo delivery efficiency of lipid nanoparticle carriers was expressed as the mean values of fluorescence intensity and total photon count in different animals measured at 6 hours after administration of the lipid nanoparticle within the same subject group, as shown in Table 4. Higher values of fluorescence intensity and total photon count indicate higher in vivo delivery efficiency of this mRNA fragment by the lipid nanoparticles.

Compared with `CCCCCCCCCSC(=O)C(C)(C)CCCCCC(CCCCCC(C)(C)C(=O)OCC#CCCC(CCCC)CCCC)OC(=O)CCCN(C)C` (centres unmarked) [Compound 119], `CCCCCCC#CCCOC(=O)C(C)(C)CCCCCC(CCCCCC(C)(C)C(=O)OCCC#CCCCCCC)OC(=O)CCCN(C)C` [Compound 24] is lower in “Total photon count in vivo (Total Flux)” value: 3.25E+10 for the first, 5.56E+09 for the second.

Compared with `CCCCC/C=C\C/C=C\CCCCCCCCC(CCCCCCCC/C=C\C/C=C\CCCCC)OC(=O)CCCN(C)C` [Dlin-MC3-DMA, reference compound], `CCCCCCCCCOC(=O)CC(C)(C)CCCCC(CCCCC(C)(C)CC(=O)OCCCCCCCCC)OC(=O)CCCN(C)C` [Compound 97] is lower in “Total photon count in vivo (Total Flux)” value: 8.04E+09 for the first, 3.37E+09 for the second.

First: CCCCCCCCCSC(=O)C(C)(C)CCCCCC(CCCCCC(C)(C)C(=O)SCCCCCCCCC)OC(=O)CC1CCN(CCO)CC1 [Compound 110]
Second: CCCCCCCCCOC(=O)C(C)(C)CCCCCC(CCCCCC(C)(C)C(=O)OCCCCCCCCC)OC(=O)CC1CCN(CCO)CC1 [Compound 113]
The “Total photon count in vivo (Total Flux)” value of the first is lower: 2.06E+08 for the first, 3.59E+08 for the second.

Compared with `CCCCCCCCCCOC(=O)C(C)(C)CCCCCC(CCCCCC(C)(C)C(=O)OCCCCCCCCCC)OC(=O)CCN(C)C` [Compound 1], `CCCCCCCCCCOC(=O)C(C)(C)CCCCCC(CCCCCC(C)(C)C(=O)OCCCCCCCCCC)OC(=O)C1CCN(C)CC1` [Compound 99] is higher in “Total photon count in vivo (Total Flux)” value: 6.43E+08 for the first, 5.30E+09 for the second.

Compared with `CCCCCCCCCOC(=O)C(C)(C)CCCCCC(CCCCCC(C)(C)C(=O)OCC(CCCCC)CCCCCCC)OC(=O)CC1CCN(CCO)CC1` (centres unmarked) [Compound 114], `CCCCCCCCN(CCCCCCCC)CCOC(=O)C(C)(C)CCCCCC(CCCCCC(C)(C)C(=O)OCCN(CCCCCCCC)CCCCCCCC)OC(=O)CCN(C)C` [Compound 15] is higher in “Total photon count in vivo (Total Flux)” value: 1.06E+08 for the first, 4.89E+08 for the second.

In the case of `CC(C)CCCCCCCOC(=O)CCC(C)(C)CCCC(CCCC(C)(C)CCC(=O)OCCCCCCCC(C)C)OC(=O)CCCN(C)C` [Compound 127], the “Total photon count in vivo (Total Flux)” value was 3.59E+10.
